From US4870097A, “Pharmaceutical use of derivatives of tryptophan” (priority 1984, dated 1989)

Key:
[1] = tested on: analgesic activity of morphine; experiment: Tail Flick Test: increase in the analgesic effect of morphine; type: in vivo, rats; conditions: for M(10'-90') average percentage variation: mean 10'-90'
How it was run: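 Male non-fasted rats, 150-200 g; heat source (75 °C) on tail, latency to tail movement timed, 8 s cut-off. Measured before and 10, 20, 30, 45, 60, 90 min after analgesic dosing; percentage variation per animal, averaged over groups of five.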

endogenous opiates = experiment: Tail Flick Test after transcutaneous shock: analgesic activity of endogenous opiates; type: in vivo, rats; conditions: for Average latency, 5': 5' after electric shock; for Average latency, 10': 10' after electric shock; for Average latency, 15': 15' after electric shock
Method: Influence of several of the compounds of the invention on the analgesic activity of endogenous opiates released under transcutaneous shock in rats measured by the Tail Flick Test
The method is that described by Lewis et al. (J. Neurosc. 1, 358 (1981). Male rats having a weight of about 200 g, which have not been fasting, are used.
The animals are stressed by the application to the front leg of a 60 Hz-2.5 mA current in pulses of a duration of one second every five seconds for 20 minutes.
This stress regime causes the release of endogenous opiates.

[2] = compound 10 mg/kg i.p. + morphine 2 mg/kg (row Morphine: alone), ± S.E.
[3] = compound 10 mg/kg i.p. + morphine 2 mg/kg (row Morphine: alone)

Structure (SMILES) | percentage variation in the latency of the pain sensation, 10' [1, 2] [%] | percentage variation in the latency of the pain sensation, 20' [1, 2] [%] | percentage variation in the latency of the pain sensation, 30' ([1]; 30', compound 10 mg/kg i.p. + morphine 2 mg/kg (row Morphine: alone), ± S.E.) [%] | percentage variation in the latency of the pain sensation, 45' [1, 2] [%] | percentage variation in the latency of the pain sensation, 60' [1, 2] [%] | percentage variation in the latency of the pain sensation, 90' [1, 2] [%] | M(10'-90') average percentage variation [1, 3] [%] | Potency ratio relative to morphine alone ([1]; rat, in vivo) | Average latency, 5' (endogenous opiates; 0.5 mg/kg i.v. + stress) [s] | Average latency, 5' (endogenous opiates; 2 mg/kg i.v. + stress) [s] | Average latency, 10' (endogenous opiates; 0.5 mg/kg i.v. + stress) [sec.] | Average latency, 10' (endogenous opiates; 2 mg/kg i.v. + stress) [sec.] | Average latency, 15' (endogenous opiates; 0.5 mg/kg i.v. + stress) [s] | Average latency, 15' (endogenous opiates; 2 mg/kg i.v. + stress) [s] | percentage variation in the latency of the pain sensation, 30' ([1]; rat, in vivo)
CCCCCCc1ccc(C(=O)N[C@@H](Cc2c[nH]c3ccccc23)C(=O)O)cc1 [Compound 26] | 100.0 ± 0.0 | 87.6 ± 9.2 | 100.0 ± 0.0 | 100.0 ± 0.0 | 100.0 ± 0.0 | 84.5 ± 9.8 | 96.3 | 3.2 | 6.62 ± 0.72 | 11.0 ± 0.65 | 6.1 ± 0.61 | 9.28 ± 0.78 | 5.52 ± 0.9 | 6.84 ± 0.73 | 
O=C(N[C@@H](Cc1c[nH]c2ccccc12)C(=O)O)OC(c1ccccc1)c1ccccc1 [Compound 33] | 100.0 ± 0.0 | 87.6 ± 12.4 |  | 97.0 ± 3.0 | 65.7 ± 21.4 | 58.1 ± 21.7 | 82.9 | 2.78 | 6.68 ± 0.53 | 9.92 ± 0.92 | 6.58 ± 0.46 | 8.1 ± 1.0 | 5.3 ± 0.56 | 6.51 ± 0.48 | 89.2 ± 10.8
